Experimental data as given in US9302967B2, “Substituted cathechols as inhibitors of IL-4 and IL-5 for the treatment of bronchial asthma” (Council of Scientific & Industrial Research, priority 2011, dated 2016).
Like-named read-outs stand apart in the source and are kept apart here.

Columns and labels:
[1] = 14 d acute oral toxicity: observations, body weight, organ weight, necropsy; format: in vivo, mice
Experimental: 14 d acute oral toxicity of compound 1 of formula I was performed. Three doses were selected: 47, 23, 12 and 0 mg/kg bw (Vehicle control) of compound 1 of formula I was administered by single oral gavage using blunt ended steel canula.

[2] = mouse, in vivo
Experimental: (§1) Earlier, LD50 of ICB 14 C6 was derived from in vitro cytotoxicity assay by NRUmethod in 3T3 cells. […] For 90d sub-chronic toxicity study the highest dose selected was one-fourth of the limit dose. Four different doses of ICB14 C6 (47, 23, 12 and 0 [vehicle] mg/kg body weight) were prepared in ground nut oil daily for 5 days a week for 90d.
Blood samples were taken from the retro-orbital sinus on day 91 for hematological and clinical chemistry analyses. Clinical analysis included serum creatinine, serum gammaGT, serum uric acid, serum glucose, serum protein, serum bilirubin, serum GOT/AST and serum GPT/ALT. Hematology including white blood cell count was analyzed with the help of Automatic Hematology Analyzer (Medonic).
Before sacrifice, blood was drawn from the retro-orbital sinus of mice with the help of heparinised capillary tubes and hematological parameters were assessed with the help of Automatic Hematology Analyzer (Medonic CA535).

COX-2 = target: T1, COX-2 (Homo sapiens, UniProt P35354); details: cited from earlier work
T1 sequence (P35354 18-604): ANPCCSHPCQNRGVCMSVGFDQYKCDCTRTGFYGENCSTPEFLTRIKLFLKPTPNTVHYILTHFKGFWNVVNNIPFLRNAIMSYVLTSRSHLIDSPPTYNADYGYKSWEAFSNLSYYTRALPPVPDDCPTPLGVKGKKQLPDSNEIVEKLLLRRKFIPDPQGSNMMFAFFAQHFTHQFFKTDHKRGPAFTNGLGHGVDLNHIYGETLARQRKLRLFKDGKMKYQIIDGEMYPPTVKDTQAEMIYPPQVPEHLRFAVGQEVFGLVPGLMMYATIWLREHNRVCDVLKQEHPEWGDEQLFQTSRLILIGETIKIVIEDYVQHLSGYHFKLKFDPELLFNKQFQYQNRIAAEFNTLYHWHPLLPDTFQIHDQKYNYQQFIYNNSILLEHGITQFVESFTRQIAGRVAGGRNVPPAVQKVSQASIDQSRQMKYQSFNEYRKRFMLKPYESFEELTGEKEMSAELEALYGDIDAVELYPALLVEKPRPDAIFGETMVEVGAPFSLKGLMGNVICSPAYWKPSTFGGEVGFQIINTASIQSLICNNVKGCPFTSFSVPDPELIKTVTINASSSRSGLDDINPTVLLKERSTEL

COX-1 = COX-1 (Homo sapiens, UniProt P23219); details: cited from earlier work
COX-1, sequence (P23219 24-599): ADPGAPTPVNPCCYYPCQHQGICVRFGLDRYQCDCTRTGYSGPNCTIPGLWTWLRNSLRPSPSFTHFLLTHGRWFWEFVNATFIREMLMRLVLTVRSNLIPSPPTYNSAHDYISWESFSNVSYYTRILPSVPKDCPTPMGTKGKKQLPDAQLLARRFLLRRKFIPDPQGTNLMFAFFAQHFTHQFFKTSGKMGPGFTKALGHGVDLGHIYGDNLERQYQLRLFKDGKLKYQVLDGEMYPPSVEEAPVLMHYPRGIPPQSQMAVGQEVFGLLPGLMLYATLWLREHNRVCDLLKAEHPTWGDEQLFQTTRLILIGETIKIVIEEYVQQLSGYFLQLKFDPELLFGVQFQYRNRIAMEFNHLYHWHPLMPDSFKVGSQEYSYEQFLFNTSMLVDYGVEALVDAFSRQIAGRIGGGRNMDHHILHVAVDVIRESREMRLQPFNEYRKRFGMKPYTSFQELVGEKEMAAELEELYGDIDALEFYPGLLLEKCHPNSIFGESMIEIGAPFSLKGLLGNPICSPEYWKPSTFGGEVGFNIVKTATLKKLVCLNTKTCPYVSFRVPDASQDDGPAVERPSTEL

IL-4 = IL-4 levels in lung homogenates by ELISA, OVA mouse model; format: in vivo, BALB/c mice; details: for IL-4 levels in lung: 10 mg/kg vs OVA/OVA/VEH
Experimental: (§2) Mice were sensitized with 0.2 ml PBS containing 50 μg ovalbumin (OVA) (Sigma, USA) and 4 mg aluminum hydroxide in saline intraperitonially (i.p.) on days 0, 7 and 14 as shown in FIG. 1. Sham group mice were sensitized with only alum dissolved in PBS. From day 18 to 27, mice were exposed to aerosol of OVA (3%) inhalation 25 minutes daily in a Plexiglas chamber (20×20×10 cm^3). The aerosol was generated by a nebulizer (OMRON CX model) with an airflow rate of 9 L/minute. Sham group mice were challenged with PBS alone.
(§3) Compound 1 of formula I was dissolved in 50% ethanol. So 50% ethanol was used as a vehicle. Group I was alum sensitized, saline challenged and treated with vehicle (SHAM/SAL/VEH), group II was OVA sensitized, OVA challenged and treated with 50% ethanol as vehicle (OVA/OVA/VEH), group III, IV, V, VI were OVA sensitized, OVA challenged and treated with 0.05, 0.1, 5 and 10 mg/kg compound 1 of formula I. Drug was given in the volume of 10 μl orally twice per day. Confirmatory experiments were done with two concentrations of compound 1 of formula I (5 and 10 mg/kg twice a day), and these findings were compared with parallel group of mice which were OVA-sensitized, -OVA challenged and treated orally once a day with 0.75 mg/kg Dexamethasone (OVA/OVA/DEX).
OVA-specific IgE levels in sera were measured by enzyme linked immunosorbent assay (ELISA) as described previously with little modification (Inflam. Res. 2003, 52, 101-106). Absorbance values at 450 nm were converted to arbitrary values by multiplying with 100. IL-4 levels in lung homogenates were measured by ELISA method as per manufacturer's instructions (BD Pharmingen, USA). Lung homogenates were prepared by homogenizing the lung tissue (approximately 100 mg) with 1 ml PBS followed by centrifugation at 10000 g for 30 min at 4° C. Results were expressed in pg/50 μg protein. Protein estimation was done by BCA method.

OVA specific IgE = test: OVA-specific IgE levels in sera by ELISA, OVA mouse model; format: in vivo, BALB/c mice; details: 10 mg/kg vs OVA/OVA/VEH
Experimental: as §2
Compound 1 of formula I was dissolved in 50% ethanol. So 50% ethanol was used as a vehicle. Group I was alum sensitized, saline challenged and treated with vehicle (SHAM/SAL/VEH), group II was OVA sensitized, OVA challenged and treated with 50% ethanol as vehicle (OVA/OVA/VEH), group III, IV, V, VI were OVA sensitized, OVA challenged and treated with 0.05, 0.1, 5 and 10 mg/kg compound 1 of formula I. Drug was given in the volume of 10 μl orally twice per day. […]
OVA-specific IgE levels in sera were measured by enzyme linked immunosorbent assay (ELISA) as described previously with little modification (Inflam. Res. 2003, 52, 101-106). Absorbance values at 450 nm were converted to arbitrary values by multiplying with 100. IL-4 levels in lung homogenates were measured by ELISA method as per manufacturer's instructions (BD Pharmingen, USA). […]

3T3 cells = test: In vitro cytotoxicity by NRU method, predicted acute oral LD50; format: cell-based; details: derived from in vitro cytotoxicity
Experimental: as §1

lung inflammation = test: Histological analysis of lung inflammation (H&E), OVA mouse model; format: in vivo, BALB/c mice
Experimental: as §2, §3
The excised lung portion was fixed in 10% buffered formalin. […]

IL-5 = test: PHA-stimulated human PBMC, IL-5 in supernatant by Cytometric Bead Array; format: cell-based; details: PHA 10 μg/ml, read-out: IC50 inhibitory activity, stimulation-induced IL-5
Experimental: Normal human peripheral blood mononuclear cells (PBMC) were stimulated with phytohemagglutinin (PHA) 10 μg/ml in the presence and absence of varying concentrations of compounds of formula I and II. Culture supernatants were harvested and IIL-4 and IL-5 cytokines were quantitated by Cytometric Bead Array (CBA™) kit (Becton Dickinson, USA) following manufacturers instructions using a Flow Cytometer (BD LSR, Becton Dickinson) and CBA™ analysis software (Becton Dickinson).

hepatocarcinoma cells = details: cited from earlier work
[3] = listed as compound of formula I

C=CCc1ccc(O)c(O)c1 [Compound 1, 4-allyl-benzene-1,2-diol]
acute oral (level) established from body weight, organ weight, necropsy, immunotoxicity, hematology, clinical chemistry, cage side observation ([1]; mice): 23 mg/kg
necropsy findings in vital organs ([1]; mouse, in vivo): no gross or microscopic lesion
clinical signs on day of administration ([1]; mouse, in vivo, po): transient symptoms of restlessness and rapid rate of respiration that persisted for 30 minutes post administration
feed and water consumption ([1]; mouse, in vivo, po): comparable to vehicle control group
morbidity and/or mortality ([1]; single oral 47, 23 and 12 mg/kg bw): did not result in any morbidity and/or mortality
Hemoglobin, RBC and WBC counts vs normal range [2]: within the normal range
platelet counts vs normal range [2]: below the normal range
HGB ([2]; 12 mg/kg): 13.76 ± 0.55 g/dL
PLT ([2]; 12 mg/kg): 272 ± 93 ×10^3/mm^3
RBC ([2]; 12 mg/kg): 10.07 ± 0.67 ×10^6/mm^3
WBC ([2]; 12 mg/kg): 8.66 ± 1.27 ×10^3/mm^3
HGB ([2]; 23 mg/kg): 13.85 ± 0.35 g/dL
PLT ([2]; 23 mg/kg): 306 ± 106 ×10^3/mm^3
RBC ([2]; 23 mg/kg): 9.82 ± 0.014 ×10^6/mm^3
WBC ([2]; 23 mg/kg): 10.85 ± 2.11 ×10^3/mm^3
HGB ([2]; 47 mg/kg): 12.13 ± 0.57 g/dL
PLT ([2]; 47 mg/kg): 319 ± 120 ×10^3/mm^3
RBC ([2]; 47 mg/kg): 8.51 ± 0.323 ×10^6/mm^3
WBC ([2]; 47 mg/kg): 10.16 ± 1.03 ×10^3/mm^3
COX-2 inhibition (COX-2): potent COX-1/COX-2 inhibitor
COX-1 inhibition (COX-1): potent COX-1/COX-2 inhibitor
reduction of lung IL-4 compared to DEX treated mice (IL-4; 10 mg/kg): approx. 65%
IL-4 levels in lung (IL-4): a decrease in the IL-4 levels
IL-4 levels in lung (IL-4; [3]): a significant reduction in the IL-4 levels
in vivo acute oral LD50 (In vivo acute oral LD50): 268 mg/kg bw
OVA specific IgE levels in sera (OVA specific IgE): significantly reduced the OVA specific IgE levels in sera
OVA specific IgE levels in sera (OVA specific IgE; [3]): significant reduction
predicted acute oral LD50 (3T3 cells): 168 mg/kg
lung inflammation (H&E) (lung inflammation; 5 mg/kg): mild reduction of inflammation
lung inflammation (H&E) (lung inflammation; 10 mg/kg): a significant reduction in both peribronchial and perivascular inflammation
IC50 (IL-5; Homo sapiens): 4.5 µM
IC50 (IL-5): 5 µM
cell cycle arrest and apoptosis (hepatocarcinoma cells): induce cell cycle arrest and apoptosis
